This passage reports Activity results from ChEMBL document CHEMBL1177796, “Efficient synthesis of galactosylceramide analogues for iNKT cell stimulation” (Bioorg Med Chem Lett, 2010).

Calls of active or inactive are those of the source. The rule behind the calls is not given here.

This test concerns iNKT. In words: Stimulation of human iNKT cell proliferation. The format is functional, cell-based.

For `CCCCCCCCCCCCCCCCCCCCCCCCCC(=O)N[C@@H](/C=N/O[C@@H]1O[C@H](CO)[C@H](O)[C@H](O)[C@H]1O)[C@H](O)[C@H](O)CCCCCCCCCCCCCC`, the result was Active.
`CCCCCCCCCCCCCCCCCCCCCCCCCC(=O)N[C@@H](/C=N/O[C@H]1O[C@H](CO)[C@H](O)[C@H](O)[C@H]1O)[C@H](O)[C@H](O)CCCCCCCCCCCCCC`: the outcome was Active.
